The target of assay [1] is T1, p-Akt3 in WM115 cells (Homo sapiens, UniProt Q9Y243).
T1 construct: SureFire assays to detect cellular p-Akt1, p-Akt2 and p-Akt3 levels in WM115 cells (Akt2/3) and LNCaP cells (Akt1); endogenous in cells; host or cells: WM115 (ECACC 91061232), insulin-stimulated
Put plainly: Phospho-Akt cellular SureFire assay, p-Akt3 in WM115 cells. It counts as cell-based. The conditions noted are these: insulin stimulated, read-out: Biological Assay 2 IC50 (nM) Akt3 WM115. An outline of the steps:
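pThr308-Akt3 in lysates was quantified by bead-proximity SureFire detection, pairing a phospho-specific antibody with a total Akt3 antibody. Before lysis, WM115 cells in 0.1% FBS medium were treated for 15 min at 37 °C with compound (final DMSO 0.3%), following a 10 min stimulation with 100 nM insulin. IC50 was obtained by 4-parameter fitting.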

For assay [2], the target named is T2, p-Akt2 in WM115 cells (Homo sapiens, UniProt P31751).
T2 construct: SureFire assays to detect cellular p-Akt1, p-Akt2 and p-Akt3 levels in WM115 cells (Akt2/3) and LNCaP cells (Akt1); endogenous in cells; host or cells: WM115 (ECACC 91061232), insulin-stimulated
T2 sequence (P31751 whole entry): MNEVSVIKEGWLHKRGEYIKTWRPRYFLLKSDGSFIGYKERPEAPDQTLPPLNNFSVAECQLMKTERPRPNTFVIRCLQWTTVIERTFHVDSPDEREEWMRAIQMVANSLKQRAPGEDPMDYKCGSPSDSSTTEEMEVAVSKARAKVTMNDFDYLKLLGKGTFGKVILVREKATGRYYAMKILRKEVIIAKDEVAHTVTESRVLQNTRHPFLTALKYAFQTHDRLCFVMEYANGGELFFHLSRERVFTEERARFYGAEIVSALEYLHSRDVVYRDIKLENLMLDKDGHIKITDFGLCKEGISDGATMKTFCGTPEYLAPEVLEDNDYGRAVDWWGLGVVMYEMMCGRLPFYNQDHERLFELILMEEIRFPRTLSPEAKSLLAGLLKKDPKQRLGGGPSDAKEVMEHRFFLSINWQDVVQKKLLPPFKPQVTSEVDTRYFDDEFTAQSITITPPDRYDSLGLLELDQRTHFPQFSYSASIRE
In words: Phospho-Akt cellular SureFire assay, p-Akt2 in WM115 cells. Type of assay: cell-based. The conditions noted are these: insulin stimulated, read-out: Biological Assay 2 IC50 (nM) Akt2 WM115. An outline of the steps: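 Readout is a bead-proximity SureFire assay pairing a pThr308 Akt antibody with a total Akt2 antibody, lysate and beads incubated 2 h plus 2 h at room temperature in the dark. Before lysis, serum-starved WM115 cells received 100 nM insulin (10 min), then test compound (15 min, 0.3% DMSO); IC50 by 4-parameter equation.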

The target of assay [3] is T3, Akt1 (Homo sapiens, UniProt P31749).
T3 construct: unspecified tag, removed (detagged) (cleaved yes); purchased SignalChem and Proteros (Akt1); Merck Millipore (PDK1) 14-452 (PDK1); none given for Akt1
T3 sequence (P31749 whole entry): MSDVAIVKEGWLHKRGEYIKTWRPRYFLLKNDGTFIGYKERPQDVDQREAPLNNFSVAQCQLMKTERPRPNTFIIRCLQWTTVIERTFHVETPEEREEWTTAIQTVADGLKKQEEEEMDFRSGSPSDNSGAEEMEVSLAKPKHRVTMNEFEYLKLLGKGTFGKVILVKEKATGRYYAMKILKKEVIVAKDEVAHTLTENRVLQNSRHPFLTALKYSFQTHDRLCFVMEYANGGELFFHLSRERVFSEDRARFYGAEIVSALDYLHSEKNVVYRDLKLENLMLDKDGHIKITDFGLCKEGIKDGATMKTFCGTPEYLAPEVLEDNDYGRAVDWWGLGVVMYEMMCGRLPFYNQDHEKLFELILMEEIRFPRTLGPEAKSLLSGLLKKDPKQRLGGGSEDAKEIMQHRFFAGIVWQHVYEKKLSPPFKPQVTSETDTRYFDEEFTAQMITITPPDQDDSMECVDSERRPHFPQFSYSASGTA
Put plainly: Akt activation assay (PDK1-mediated activation, LANCE Ultra crosstide TR-FRET), Akt1. It counts as biochemical. Conditions: read-out: Biological Assay 1 IC50 (nM) Akt1. An outline of the steps: (§1)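 Two-step cascade format: Akt1, Akt2 or Akt3 phosphorylates Ulight-crosstide (100 nM) only after activation by 5 nM PDK1 in presence of PtdIns(3,4,5)P3 vesicles and 100 μM ATP. Product quantified by Eu-antibody TR-FRET after 30 min reaction.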
In general terms: In TR-FRET formats the signal depends on donor and acceptor labels being close together.

The target in assay [4] is T4, p-Akt1 in LNCaP cells (Homo sapiens, UniProt P31749).
T4 construct: SureFire assays to detect cellular p-Akt1, p-Akt2 and p-Akt3 levels in WM115 cells (Akt2/3) and LNCaP cells (Akt1); endogenous in cells; host or cells: LNCaP (ECACC 89110211)
T4 sequence (P31749 whole entry): as above
In words: Phospho-Akt cellular SureFire assay, p-Akt1 in LNCaP cells. It counts as cell-based. Conditions: read-out: Biological Assay 2 IC50 (nM) Akt1 LNCaP. The procedure, abridged:
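Phospho-Thr308 Akt1 detected by AlphaScreen SureFire proximity beads in LNCaP lysates after 15 min compound treatment at 37 °C in 0.1% FBS medium, unstimulated, 0.3% DMSO. Cells plated at 5×10^4/well overnight; IC50 from a 4-parameter equation.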

The target in assay [5] is T5, Akt2 (Homo sapiens, UniProt P31751).
T5 construct: unspecified tag, removed (detagged) (cleaved yes); purchased SignalChem and Proteros (Akt2); Merck Millipore (PDK1) 14-452 (PDK1); none given for Akt2
T5 sequence (P31751 whole entry): as the sequence (P31751 whole entry) above
Put plainly: Akt activation assay (PDK1-mediated activation, LANCE Ultra crosstide TR-FRET), Akt2. Conditions: read-out: Biological Assay 1 IC50 (nM) Akt2. Type of assay: biochemical. The procedure, abridged: as §1

The target of assay [6] is T6, Akt3 (Homo sapiens, UniProt Q9Y243).
T6 construct: unspecified tag, removed (detagged) (cleaved yes); purchased SignalChem and Proteros (Akt3); Merck Millipore (PDK1) 14-452 (PDK1); none given for Akt3
T6 sequence (Q9Y243 whole entry): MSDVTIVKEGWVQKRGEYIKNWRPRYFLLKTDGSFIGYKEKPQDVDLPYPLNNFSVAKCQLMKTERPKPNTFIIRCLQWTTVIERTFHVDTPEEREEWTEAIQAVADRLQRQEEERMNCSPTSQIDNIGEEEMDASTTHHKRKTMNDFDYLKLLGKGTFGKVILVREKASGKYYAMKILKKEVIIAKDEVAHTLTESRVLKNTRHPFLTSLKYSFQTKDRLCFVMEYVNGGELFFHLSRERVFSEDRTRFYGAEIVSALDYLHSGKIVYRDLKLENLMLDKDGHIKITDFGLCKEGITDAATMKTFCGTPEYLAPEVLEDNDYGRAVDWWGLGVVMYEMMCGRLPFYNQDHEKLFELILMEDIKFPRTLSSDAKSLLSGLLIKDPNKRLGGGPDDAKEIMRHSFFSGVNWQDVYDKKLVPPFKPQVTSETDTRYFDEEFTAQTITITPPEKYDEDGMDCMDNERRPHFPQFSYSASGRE
Put plainly: Akt activation assay (PDK1-mediated activation, LANCE Ultra crosstide TR-FRET), Akt3. Type of assay: biochemical. The conditions noted are these: read-out: Biological Assay 1 IC50 (nM) Akt3. An outline of the steps: as §1

T1 sequence (Q9Y243 whole entry): as above

As usually defined, the IC50 is the midpoint of a concentration-inhibition curve. Take `CCN(C(=O)OC)[C@H]1CC[C@H](CC(=O)Nc2cnc(-c3ccc([C@]4(N)C[C@](C)(O)C4)cc3)c(-c3ccccc3)c2)CC1` [Example 118, Methyl (trans-4-(2-((6-(4-(trans-1-amino-3-hydroxy-3-methylcyclobutyl)phenyl)-5-phenylpyridin-3-yl)amino)-2-oxoethyl)cyclohexyl) (ethyl)carbamate]: the IC50 in assay [1] was 6 nM; in assay [2], 230 nM; in assay [3], 8500 nM; in assay [4], 1600 nM; in assay [5] it was 110 nM; in assay [6] it was 5 nM.
Consider `CC(=O)N(C(C)C)[C@H]1CC[C@H](CC(=O)Nc2cnc(-c3ccc([C@]4(N)C[C@](C)(O)C4)cc3)c(-c3ccccc3)c2)CC1` [Example 120, N-(6-(4-(trans-1-amino-3-hydroxy-3-methylcyclobutyl)phenyl)-5-phenylpyridin-3-yl)-2-(trans-4-(N-isopropylacetamido)cyclohexyl)acetamide], for which the IC50 in assay [1] is 15 nM; in assay [2], 350 nM; in assay [3], 8600 nM; in assay [4], 1300 nM; in assay [5], 65 nM; in assay [6], 7 nM.
As to `CCC(=O)N(C(C)C)[C@H]1CC[C@H](CC(=O)Nc2cnc(-c3ccc([C@]4(N)C[C@](C)(O)C4)cc3)c(-c3ccccc3)c2)CC1` [Example 122, N-(trans-4-(2-((6-(4-(trans-1-amino-3-hydroxy-3-methylcyclobutyl)phenyl)-5-phenylpyridin-3-yl)amino)-2-oxoethyl)cyclohexyl)-N-isopropylpropionamide], the IC50 in assay [1] stood at 13 nM; in assay [2], 390 nM; in assay [3] it was 6100 nM; in assay [4] it was 1400 nM; in assay [5], 87 nM; in assay [6], 8 nM.
With `CC(=O)N(C)[C@H]1CC[C@H](CC(=O)Nc2cnc(-c3ccc(C4(N)CC(C)(O)C4)c(F)c3)c(-c3ccccc3)c2)CC1` (stereo partly drawn) [Example 124, N-(6-(4-(trans-1-amino-3-hydroxy-3-methylcyclobutyl)-3-fluorophenyl)-5-phenylpyridin-3-yl)-2-(trans-4-(N-methylacetamido)cyclohexyl)acetamide], the IC50 in assay [1] is 27 nM; in assay [2] it was 2400 nM; in assay [3], greater than 21000 nM; in assay [4], 10000 nM; in assay [5], 880 nM; in assay [6], 36 nM.
For `CCC(=O)N(C)[C@H]1CC[C@H](CC(=O)Nc2cc(-c3ccsc3)c(-c3ccc([C@]4(N)C[C@H](F)C4)cc3)nn2)CC1` [Example 125], the IC50 in assay [1] is 22 nM; in assay [2], 3000 nM; in assay [3], greater than 30000 nM; in assay [4] it was greater than 30000 nM; in assay [5], 1500 nM; in assay [6] it was 26 nM.
As for `CCC(=O)N(C)[C@H]1CC[C@H](CC(=O)Nc2cc(-c3ccccc3)c(-c3ccc([C@]4(N)C[C@](C)(O)C4)c(F)c3)nn2)CC1` [Example 126, N-(trans-4-(2-((6-(4-(trans-1-amino-3-hydroxy-3-methylcyclobutyl)-3-fluorophenyl)-5-phenylpyridazin-3-yl)amino)-2-oxoethyl)cyclohexyl)-N-methylpropionamide], the IC50 in assay [1] was 32 nM; in assay [2] it was 3300 nM; in assay [3] it was greater than 30000 nM; in assay [4], greater than 30000 nM; in assay [5] it was 3000 nM; in assay [6] it was 31 nM.
Consider `CC(=O)N(C)[C@H]1CC[C@H](CC(=O)Nc2cc(-c3ccccc3)c(-c3ccc([C@]4(N)C[C@](C)(O)C4)c(F)c3)nn2)CC1` [Example 127, N-(6-(4-(trans-1-amino-3-hydroxy-3-methylcyclobutyl)-3-fluorophenyl)-5-phenylpyridazin-3-yl)-2-(trans-4-(N-methylacetamido)cyclohexyl)acetamide], for which the half-inhibitory concentration (IC50) in assay [1] is 42 nM; in assay [2], 2900 nM; in assay [3], greater than 25000 nM; in assay [4], greater than 30000 nM; in assay [5], 2900 nM; in assay [6] it was 31 nM.
In the case of `COCCN(C)[C@H]1CC[C@H](CC(=O)Nc2cc(-c3ccccc3)c(-c3ccc([C@]4(N)C[C@](C)(O)C4)cc3)cn2)CC1` [Example 128, N-(5-(4-(trans-1-amino-3-hydroxy-3-methylcyclobutyl)phenyl)-4-phenylpyridin-2-yl)-2-(trans-4-((2-methoxyethyl)(methyl)amino)cyclohexyl)acetamide], the IC50 is 93 nM in assay [1]; 810 nM in assay [2]; greater than 18000 nM in assay [3]; 5500 nM in assay [4]; 370 nM in assay [5]; 110 nM in assay [6].
As to `CCN(C(=O)OC)[C@H]1CC[C@H](CC(=O)Nc2cc(-c3ccccc3)c(-c3ccc([C@]4(N)C[C@](C)(O)C4)cc3)nn2)CC1` [Example 129, Methyl (trans-4-(2-((6-(4-(trans-1-amino-3-hydroxy-3-methylcyclobutyl)phenyl)-5-phenylpyridazin-3-yl)amino)-2-oxoethyl)cyclohexyl) (ethyl)carbamate], the IC50 was determined as 7 nM in assay [1]; 620 nM in assay [2]; 11000 nM in assay [3]; 2000 nM in assay [4]; 190 nM in assay [5]; 7 nM in assay [6].
Consider `COC(=O)N(C)[C@H]1CC[C@H](CC(=O)Nc2cnc(-c3ccc(C4(N)CCC4)cc3)c(-c3ccccc3)c2)CC1` [Example A1, Methyl (trans-4-(2-((6-(4-(1-aminocyclobutyl)phenyl)-5-phenylpyridin-3-yl)amino)-2-oxoethyl)cyclohexyl)(methyl)carbamate], for which the IC50 is 130 nM in assay [1]; 2800 nM in assay [2]; 4000 nM in assay [3]; greater than 16000 nM in assay [4]; 420 nM in assay [5]; 110 nM in assay [6].
As to `NC1(c2ccc(-c3ncc(NC(=O)C[C@H]4CC[C@H](N5CCOCC5)CC4)cc3-c3ccccc3)cc2)CC(F)(F)C1` [Example A2, N-(6-(4-(1-amino-3,3-difluorocyclobutyl)phenyl)-5-phenylpyridin-3-yl)-2-(trans-4-morpholinocyclohexyl)acetamide], the IC50 stood at 560 nM in assay [1]; 6000 nM in assay [2]; 5500 nM in assay [3]; 7700 nM in assay [4]; 2600 nM in assay [5]; 1400 nM in assay [6].
Consider `COC(=O)N[C@H]1CC[C@H](CC(=O)Nc2cnc(-c3ccc(C4(N)CC(F)(F)C4)cc3)c(-c3ccccc3)c2)CC1` [Example A4, Methyl (trans-4-(2-((6-(4-(1-amino-3,3-difluorocyclobutyl)phenyl)-5-phenylpyridin-3-yl)amino)-2-oxoethyl)cyclohexyl)carbamate], for which the IC50 in assay [1] was 440 nM; in assay [2], 7600 nM; in assay [3], 11000 nM; in assay [4], greater than 30000 nM; in assay [5], 2400 nM; in assay [6], 630 nM.
For `CN(C(=O)C(F)F)[C@H]1CC[C@H](CC(=O)Nc2cnc(-c3ccc(C(C)(C)N)cc3)c(-c3ccccc3)c2)CC1` [Example A7, N-(trans-4-(2-((6-(4-(2-aminopropan-2-yl)phenyl)-5-phenylpyridin-3-yl)amino)-2-oxoethyl)cyclohexyl)-2,2-difluoro-N-methylacetamide], the IC50 in assay [1] is 230 nM; in assay [2] it was 7100 nM; in assay [3], greater than 30000 nM; in assay [4] it was greater than 30000 nM; in assay [5] it was 5800 nM; in assay [6] it was 70 nM.

For the origin of these results see patent US10336702B2, “Pharmaceutically active compounds” (BERGENBIO ASA, priority 2015, dated 2019).
